Data reported in PubChem BioAssay AID624491 (Broad Institute, 2012).

tested on: D54 ERlucT glycosylation luciferase reporter, luminescence, 24 h; assay: blockers of NLG process in reporter cells – D54 ERlucT cells, luminescence, cherry-picks, dose response (AID 624491);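 also: signal gain reflects blocked N-linked glycosylation of a luciferase reporter; actives raise luciferase signal so AC26 marks activators of the reporter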

First: COc1cc(-c2nc(-c3ccccc3)c(-c3cccs3)[nH]2)cc(OC)c1OC
Second: COc1cc(-c2noc(C)c2/C=C/c2ccc(N)cc2)cc(OC)c1OC
The AC26 of the first is 7-fold higher: 3280 nM for the first, 467 nM for the second.

`CCN(CC)S(=O)(=O)c1cccc(C(=O)OCC(=O)Nc2ccc3c(c2)c2ccccc2n3CC)c1` and `COc1cccc(NC(=O)CCCOc2cc(=O)n(C)c3ccccc23)c1` are within 1.5-fold of each other in AC26: 4110 nM for the first, 4130 nM for the second.

First: Cc1cc(Cl)ccc1OCCCC(=O)NO
Second: O=C(Nc1ccc(Cl)cn1)c1cccc(F)c1
The AC26 of the first is 2.6-fold lower: 2730 nM for the first, 6980 nM for the second.

Going from `C[C@H](O)[C@@H]1CN2CCc3c([nH]c4ccccc34)[C@@H]2C[C@@H]1N(C)C(=O)c1ccco1` to `COc1cc(CN2CCc3ccccc3C2)ccc1O`, the AC26 rises from 408 nM to 696 nM (1.7-fold).

Going from `Cc1ccc2c(C)c3ccc4ccccc4c3c[n+]2c1` to `CCOC(=O)c1cc2[nH]c3ccccc3c2[n+](-c2ccc([N+](=O)[O-])cc2)c1N`, the AC26 rises from 667 nM to 1930 nM (2.9-fold).

First: COc1cc2c(cc1OC)-c1c3c(cc4c1[C@@H](C2)N(C)CC4)OCO3
Second: COc1cc(C(=O)NCCOc2cc(C)cc(C)c2)cc(OC)c1OC
The AC26 of the first is 7.4-fold higher: 17600 nM for the first, 2370 nM for the second.

First: O=C(c1ccc(Cl)c(S(=O)(=O)N2CCCCC2)c1)N1CCN(Cc2ccccc2)CC1
Second: O=C(CCl)Nc1cc(S(=O)(=O)N2CCCCCC2)ccc1Cl
The AC26 of the first is 9.4-fold higher: 4150 nM for the first, 441 nM for the second.

First: CC1CN(C(=O)c2ccc(COc3ccc(C(C)C)cc3)o2)CC(C)O1 (stereo unspecified)
Second: COc1cccc(C2=NOC(C(=O)NCc3ccc(F)cc3)C2)c1 (stereo unspecified)
The AC26 of the first is 3.3-fold higher: 3780 nM for the first, 1160 nM for the second.

First: CC(=O)Nc1ccc(NC(=O)c2ccc(-c3c(C)noc3C)c3ccoc23)cc1
Second: CC(=O)Nc1cccc(-c2ccnc3c2CC(C(=O)Nc2ccc4c(c2)OCO4)O3)c1 (stereo unspecified)
The AC26 of the first is 3.4-fold lower: 1350 nM for the first, 4550 nM for the second.

Compared with `OCCCCCN=c1cc(-c2ccccc2)oc2ccc(Cl)cc12`, `OCCCN=c1cc(-c2ccccc2)oc2ccc(Cl)cc12` is 2-fold lower in AC26: 1970 nM for the first, 978 nM for the second.

First: O=C1C=C(c2cccs2)C[C@H](c2ccccc2)[C@H]1n1nnc([N+](=O)[O-])n1
Second: O=C(NCc1ccco1)c1nn2c(C(F)(F)F)cc(-c3cccs3)nc2c1Br
The AC26 of the first is 12-fold lower: 260 nM for the first, 3250 nM for the second.

Going from `CCN(CC)CCn1c2ccccc2c2cnc(N)c(C#N)c21` to `CCn1c(=O)c([N+](=O)[O-])c(Cl)c2ccccc21`, the AC26 rises from 750 nM to 1390 nM (1.9-fold).

Going from `Cc1ccc(C)c(OCC(O)CN2CCN(CCN3C(=O)c4cccc5cccc(c45)C3=O)CC2)c1` (stereo unspecified) to `CCn1c(=O)cc(SCC(=O)NCCCN2CCN(c3ccc(F)cc3)CC2)c2ccccc21`, the AC26 rises from 755 nM to 9830 nM (13-fold).

`COc1ccc(OC)c(S(=O)(=O)Nc2ccc(-c3ccc4nnc(C)n4n3)cc2)c1` and `COc1ccc(C(=O)/C=C2/C(=O)Nc3ccccc32)c(OC)c1` are within 1.5-fold of each other in AC26: 3190 nM for the first, 4070 nM for the second.

`COc1cccc(/C=N/NC(=O)c2ccc(N3CCCC3=O)cc2)c1` and `COc1ccc(NC(=O)C(=O)NCC2CCCN2S(=O)(=O)c2cccs2)cc1` (stereo unspecified) are within 1.5-fold of each other in AC26: 3350 nM for the first, 5020 nM for the second.

Compared with `CN(C)S(=O)(=O)c1ccc(N2CCCC2)c(C(=O)Nc2nc3ccccc3s2)c1`, `COc1ccc(S(=O)(=O)NCc2ccccn2)cc1NC(=O)c1ccccc1C` is 4.9-fold higher in AC26: 545 nM for the first, 2690 nM for the second.

First: CCc1ccc(Nc2n[n+](-c3ccccc3)c(-c3ccc(N(CC)CC)cc3)s2)cc1
Second: COc1ccc(CC(=O)N(Cc2ccccc2)c2ccc(C)cc2)cc1S(=O)(=O)N1CCOCC1
The AC26 of the first is 6.1-fold higher: 7030 nM for the first, 1160 nM for the second.

Compared with `CCCCCCC(=O)N(O)C1CC(=O)N(c2ccc(Br)cc2)C1=O` (stereo unspecified), `NC(=O)CC(NC(=O)Cc1ccc(Br)cc1)c1ccc(NC2CCC2)c([N+](=O)[O-])c1` (stereo unspecified) is 4-fold higher in AC26: 689 nM for the first, 2760 nM for the second.

First: Cc1cccn2c(=O)c3cc(C(=O)NC4CCCC4)n(C)c3nc12
Second: Cn1nc(-c2ccc(Cl)cc2)c2cc(C(=O)NCCCN3CCOCC3)sc21
The AC26 of the first is 3.5-fold higher: 15100 nM for the first, 4330 nM for the second.

Compared with `O=C(Nc1cccc(-c2cn3ccccc3n2)c1)c1cccc(Cl)c1`, `Oc1cc(NCc2ccc(Cl)cc2)cc2cccnc12` is 3.7-fold higher in AC26: 1750 nM for the first, 6410 nM for the second.

`O=c1[nH]c(O)c(/C=C2/C=CC(c3cc(Cl)ccc3Cl)=N2)c(=O)[nH]1` and `C=CCn1c(O)c(/C=C2/C=CC=N2)c(=O)[nH]c1=O` are within 1.5-fold of each other in AC26: 2610 nM for the first, 3080 nM for the second.

First: C=CCn1c(SCC(=O)c2[nH]c(C)c(C(=O)OC)c2C)nc2scc(-c3ccc(OC)c(OC)c3)c2c1=O
Second: Cc1ccc2nc(-c3ccc(SCC(=O)Nc4nnc(C)s4)nc3)[nH]c2c1
The AC26 of the first is 6.9-fold lower: 703 nM for the first, 4860 nM for the second.

Going from `O=C1CCNc2cc3ccccc3cc21` to `CC(=O)n1cc(/C=N/NC(=O)c2sc(C)nc2C)c2ccccc21`, the AC26 rises from 32.5 nM to 10000 nM (310-fold).

First: CC(=O)Nc1sc(C)c(C)c1C(=O)OCC(=O)Nc1ccccc1
Second: CC(=O)NC(=C(Cl)Cl)S(=O)(=O)c1ccccc1
The AC26 of the first is 4.4-fold higher: 4780 nM for the first, 1080 nM for the second.

Compared with `CC1(C(=O)NCc2cccs2)Cc2c(-c3cccc(C(F)(F)F)c3)ccnc2O1` (stereo unspecified), `COc1cccc(-c2nn(C)c3sc(C(=O)NCc4ccco4)cc23)c1` is 4.2-fold lower in AC26: 15100 nM for the first, 3620 nM for the second.

First: CCOc1ccc(S(=O)(=O)NCc2cccnc2)cc1NC(=O)c1ccccc1F
Second: Cc1cc(C)c(NC(=O)CSc2nc(COc3ccccc3)nc3ccccc23)c(C)c1
The AC26 of the first is 1.9-fold higher: 9740 nM for the first, 5220 nM for the second.

Compared with `CCOc1cc(NC(=O)CCl)c(OCC)cc1NC(=O)CCl`, `COCCNC(=O)c1cc(-c2cccs2)on1` is 2.7-fold higher in AC26: 1690 nM for the first, 4600 nM for the second.

Going from `O=C(/C=C/Sc1ccccc1)c1ccc(Cl)cc1` to `C=CCn1cccc(/C=C/C(=O)c2ccc(C(C)(C)C)cc2)c1=S`, the AC26 rises from 727 nM to 1290 nM (1.8-fold).
